A word on the EC50: it is the concentration at which the effect is half-maximal.

Drawing on patent US9365605B2, “Cyclic nucleotide analogs” (priority 2010, dated 2016), this text covers EC50 for five compounds.

The test system of the test is Huh-7 cells containing the self-replicating, subgenomic HCV replicon with a stable luciferase (LUC) reporter. Description: HCV replicon assay (luciferase reporter, Bright-Glo). The format is cell-based. How it is done: Huh-7 cells containing the self-replicating, subgenomic HCV replicon with a stable luciferase (LUC) reporter were cultured in Dulbecco's modified Eagle's medium (DMEM) containing 2 mM L-glutamine and supplemented with 10% heat-inactivated fetal bovine serum (FBS), 1% penicillin-streptomyocin, 1% nonessential amino acids, and 0.5 mg/mL G418.
Determination of 50% inhibitory concentration (EC50) of compounds in HCV replicon cells were performed by the following procedure. On the first day, 5,000 HCV replicon cells were plated per well in a 96-well plate. On the following day, test compounds were solubilized in 100% DMSO to 100× the desired final testing concentration. Each compound was then serially diluted (1:3) up to 9 different concentrations. Compounds in 100% DMSO are reduced to 10% DMSO by diluting 1:10 in cell culture media. The compounds were diluted to 10% DMSO with cell culture media, which were used to dose the HCV replicon cells in 96-well format. The final DMSO concentration was 1%. The HCV replicon cells were incubated at 37° C. for 72 hours. At 72 hours, cells were processed when the cells are still subconfluent. Compounds that reduce the LUC signal are determined by Bright-Glo Luciferase Assay (Promega, Madison, Wis.). % Inhibition was determined for each compound concentration in relation to the control cells (untreated HCV replicon) to calculate the EC50.
Compounds of Formula (I) are active in the replicon assay. The antiviral activity of exemplary compounds is shown in Table 5, where ‘A’ indicates an EC50<1 μM, ‘B’ indicates an EC50≧1 μM and <10 μM, and ‘C’ indicates an EC50≧10 μM and <100 μM.
For orientation: In antiviral work, replicon cells carry a viral genome segment that copies itself.

The structures appear in SMILES notation. Read-outs that look alike come from different tables or passages of the source.

`COc1nc(N)nc2c1ncn2[C@@H]1O[C@@H]2COP(=S)(OC)O[C@H]2[C@@]1(C)O` (some centres unmarked) [Compound 1a, (Rp/Sp) 2′-C-methyl-6-O-methyl-guanosine-3′,5′-cyclic-O-methyl phosphorothioate] registered an EC50 (Hepatitis C virus, Huh-7, 72 h) of less than 1 µM.
Take `COP1(=O)O[C@H]2[C@@H](O)[C@H](n3cnc4c(N)ncnc43)O[C@@H]2[C@H](C)O1` (some centres unmarked) [Compound 8a]: the EC50 (Hepatitis C virus, HCV replicon cells (Huh-7), 72 hours incubation, LUC signal, read-out: EC50) lay in the range of 10 to 100 µM.
With `COP1(=S)OC[C@H]2O[C@@H](n3ccc(=O)[nH]c3=O)[C@](C)(O)[C@@H]2O1` (some centres unmarked) [Compound 10a, 1-(7-Hydroxy-2-methoxy-7-methyl-2-thioxo-tetrahydro-2l5-furo[3,2-d][1,3,2]dioxaphosphinin-6-yl)-1H-pyrimidine-2,4-dione], where the note is “Hepatitis C virus, Huh-7, 72 h”, the EC50 was in the range of 10 to 100 µM.
For the setting “Hepatitis C virus, Huh-7, 72 h”, `CC(C)OP1(=S)OC[C@H]2O[C@@H](n3ccc(=O)[nH]c3=O)[C@](C)(O)[C@@H]2O1` (some centres unmarked) [Compound 11a, 1-(7-Hydroxy-2-isopropoxy-7-methyl-2-thioxo-tetrahydro-2l5-furo[3,2-d][1,3,2]dioxaphosphinin-6-yl)-1H-pyrimidine-2,4-dione] came in with an EC50 of 1 to 10 µM.
Consider `COc1nc(N)nc2c1ncn2[C@@H]1O[C@@H]2COP(=O)(SCOC(=O)C(C)(C)C)O[C@H]2[C@@]1(C)O` (some centres unmarked) [Compound 12a, 2′-C,O^6-Dimethylguanosine 3′,5′-cyclic O-pivaloyloxymethyl phosphorothioate], for which, where the note is “HCV replicon cells (Huh-7), 72 hours incubation, LUC signal, read-out: EC50”, the EC50 was less than 1 µM.
